# The source made the active and inactive calls. The calls are words filed in the database; no cut-off is given here.
# Tests used:
# Enterovirus A71 [1] = test: Antiviral activity against Enterovirus A71 infected in human MRC5 cells assessed as reduction in viral replication incubated for 72 hrs by RT-qPCR analysis; format: functional, organism-based; settings: Enterovirus A, MRC5, 72 h
# Enterovirus A71 [2] = test: Antiviral activity against Enterovirus A71 infected in human RD cells assessed as reduction in viral replication incubated for 72 hrs by RT-qPCR analysis; format: functional, organism-based; settings: Enterovirus A
# [3] = Cytotoxicity against human RD cells; format: toxicity, cell-based
# [4] = Cytotoxicity against human MRC5 cells; format: toxicity, cell-based
# [5] = Genotoxicity in Chinese hamster CHO-K1 cells assessed as increase in micronucleated cell rate at […] incubated for 3 hrs in presence of Sprague-Dawley rat liver S9 fraction by Giemsa staining based micronucleus assay; format: toxicity, subcellular, Cricetulus griseus; settings: s9, 3 h, dose lower 1 g/L
# [6] = Cytotoxicity against Chinese hamster CHO-K1 cells incubated for 24 hrs by neutral red dye uptake assay; format: toxicity, cell-based, Cricetulus griseus
# [7] = Selectivity index, ratio of CC50 for cytotoxicity against human RD cells to EC50 for antiviral activity against Enterovirus A71 infected in human RD cells; format: toxicity, cell-based; settings: read-out: Ratio CC50/EC50
# [8] = Genotoxicity in Chinese hamster CHO-K1 cells assessed as increase in micronucleated cell rate at […] incubated for 3 hrs in absence of Sprague-Dawley rat liver S9 fraction by Giemsa staining based micronucleus assay; format: toxicity, Cricetulus griseus; settings: cho-k1, 3 h, dose lower 1 g/L
# [9] = Selectivity index, ratio of CC50 for cytotoxicity against human MRC5 cells to EC50 for antiviral activity against Enterovirus A71 infected in human MRC5 cells; format: toxicity, cell-based; settings: read-out: Ratio CC50/EC50
# rhinovirus B14 = test: Antiviral activity against Human rhinovirus B14 infected in human HeLa-RH cells assessed as inhibition of virus induced cytopathic effect incubated for 3 days by MTS assay; format: functional, organism-based; settings: Rhinovirus B, 72 h
# Enterovirus A71 [10] = test: Antiviral activity against Enterovirus A71 infected in human RD cells assessed as inhibition of viral replication at 0.31 to 40 uM incubated for 72 hrs by RT-qPCR analysis relative to control; format: functional; settings: dose 0.31-40 µM
# Enterovirus A71 [11] = test: Antiviral activity against Enterovirus A71 infected in human MRC5 cells assessed as inhibition of viral replication at 0.31 to 40 uM incubated for 72 hrs by RT-qPCR analysis relative to control; format: functional; settings: dose 0.31-40 µM
compound,measurement,setting,value
O=Cc1ccc(-c2ccc(SCc3ccc(-n4cncn4)cc3)nc2)cc1,EC50,Enterovirus A71 [1],> 20 µM
CCOc1ccc(-c2ccc(SCc3ccc(-n4cncn4)cc3)nc2)cc1,EC50,Enterovirus A71 [1],> 20 µM
c1ncn(-c2ccc(CSc3ccc(-c4ccc(N5CCOCC5)cc4)cc3)cc2)n1,EC50,Enterovirus A71 [1],> 20 µM
FC(F)(F)c1ccc2c(SCc3ccc(-n4cncn4)cc3)ccnc2c1,EC50,Enterovirus A71 [2],12.7 µM
same,CC50,[3],20.8 µM
same,EC50,Enterovirus A71 [1],28 µM
same,CC50,[4],> 40 µM
OCc1ccc(-c2ccc(SCc3ccc(-c4ccc(N5CCOCC5)cc4)cc3)nc2)cc1,EC50,Enterovirus A71 [2],19.7 µM
same,Activity,[5],Non-Toxic
same,CC50 at 24 h,[6],45.8 µM
same,CC50,[3],> 40 µM
same,EC50,Enterovirus A71 [1],6.38 µM
same,selectivity ratio,[7],> 2
same,Activity,[8],Non-Toxic
same,CC50,[4],> 20 µM
same,selectivity ratio,[9],> 3.1
Clc1ccc2oc(SCc3ccc(-n4cncn4)cc3)nc2c1,EC50,Enterovirus A71 [1],> 20 µM
COc1ccc2[nH]c(SCc3ccc(-n4cncn4)cc3)nc2c1,EC50,Enterovirus A71 [2],> 40 µM
same,CC50,[3],> 40 µM
same,EC50,Enterovirus A71 [1],> 40 µM
same,CC50,[4],> 40 µM
COc1cc(C[C@H](O)c2ccc(C#N)cc2)c([N+](=O)[O-])cc1OC,EC50,rhinovirus B14,2 µM
Cc1ccc(-c2ccc(SCc3ccc(-n4cncn4)cc3)cc2)cc1,EC50,Enterovirus A71 [1],> 20 µM
CCOc1noc2cc(OCCC3CCN(c4ccc(C)nn4)CC3)ccc12 [VAPENDAVIR],CC50,[3],> 63 µM
same,CC50,[4],> 20 µM
CCOc1ccc(-c2ccc(CSc3nc4cc(OC)ccc4o3)cc2)cc1,EC50,Enterovirus A71 [1],> 20 µM
OCc1ccc(-c2ccc(SCc3ccc(-n4cncn4)cc3)cc2)cc1,EC50,Enterovirus A71 [1],> 20 µM
CN1CCC(c2ccc(-c3ccc(CSc4ccc(-c5ccc(CO)cc5)cn4)cc3)cc2)CC1,EC50,Enterovirus A71 [1],> 20 µM
CCOc1ccc(-c2ccc(SCc3ccc(-n4cncn4)cc3)cc2)cc1,EC50,Enterovirus A71 [1],> 20 µM
CN(C)c1ccc(-c2ccc(SCc3ccc(-n4cncn4)cc3)cc2)cc1,EC50,Enterovirus A71 [1],> 20 µM
CCOc1ccc(-c2ccc(CSc3ccc(-c4ccc(CO)cc4)cc3)cc2)cc1,EC50,Enterovirus A71 [1],> 20 µM
COc1ccc2oc(SCc3ccc(-c4ccc(N(C)C)cc4)cc3)nc2c1,EC50,Enterovirus A71 [1],> 20 µM
Fc1ccc(-c2ccc(SCc3ccc(-n4cncn4)cc3)cc2)cc1C(F)(F)F,EC50,Enterovirus A71 [1],> 20 µM
OCc1ccc(-c2ccc(SCc3ccc(-c4ccc(C(F)(F)F)cc4)cc3)nc2)cc1,EC50,Enterovirus A71 [1],> 20 µM
c1ccc2[nH]c(SCc3ccc(-n4cncn4)cc3)nc2c1,EC50,Enterovirus A71 [1],> 20 µM
c1ccc2oc(SCc3ccc(-n4cncn4)cc3)nc2c1,EC50,Enterovirus A71 [1],> 20 µM
Cn1nccc1-c1ccc(SCc2ccc(-n3cncn3)cc2)nc1,EC50,Enterovirus A71 [1],> 20 µM
FC(F)(F)c1ccc(-c2ccc(SCc3ccc(-n4cncn4)cc3)cc2)cc1,EC50,Enterovirus A71 [1],> 20 µM
Cn1nccc1-c1ccc(SCc2ccc(-n3cncn3)cc2)cc1,EC50,Enterovirus A71 [2],4.38 µM
same,Activity,[5],Non-Toxic
same,inhibition (INH),Enterovirus A71 [10],100%
same,CC50 at 24 h,[6],44.8 µM
same,CC50,[3],> 40 µM
same,EC50,Enterovirus A71 [1],0.57 µM
same,selectivity ratio,[7],> 9
same,Activity,[8],Non-Toxic
same,CC50,[4],> 20 µM
same,inhibition (INH),Enterovirus A71 [11],100%
same,selectivity ratio,[9],> 35
c1ccc2nc(SCc3ccc(-n4cncn4)cc3)cnc2c1,EC50,Enterovirus A71 [2],6.8 µM
same,CC50,[3],> 40 µM
same,EC50,Enterovirus A71 [1],38.1 µM
same,CC50,[4],> 40 µM
OCc1ccc(-c2ccc(SCc3ccc(-n4cncn4)cc3)nc2)cc1,EC50,Enterovirus A71 [2],1.66 µM
same,Activity,[5],Non-Toxic
same,inhibition,Enterovirus A71 [10],Active
same,CC50 at 24 h,[6],41.3 µM
same,CC50,[3],> 40 µM
same,EC50,Enterovirus A71 [1],0.29 µM
same,selectivity ratio,[7],> 24
same,Activity,[8],Non-Toxic
same,CC50,[4],> 20 µM
same,inhibition,Enterovirus A71 [11],Active
same,selectivity ratio,[9],> 68
COc1ccc2oc(SCc3ccc(-n4cncn4)cc3)nc2c1,EC50,Enterovirus A71 [2],28.5 µM
same,Activity,[5],Non-Toxic
same,CC50 at 24 h,[6],32.1 µM
same,CC50,[3],22.1 µM
same,EC50,Enterovirus A71 [1],1.67 µM
same,Activity,[8],Non-Toxic
same,CC50,[4],> 20 µM
same,selectivity ratio,[9],< 1
c1ccc2nc(SCc3ccc(-n4cncn4)cc3)ccc2c1,EC50,Enterovirus A71 [2],> 40 µM
same,CC50,[3],> 40 µM
same,EC50,Enterovirus A71 [1],39.7 µM
same,CC50,[4],> 40 µM
CN(C)c1ccc(-c2ccc(CSc3ccc(-c4ccc(CO)cc4)cn3)cc2)cc1,EC50,Enterovirus A71 [1],> 20 µM
Cc1ccc2oc(SCc3ccc(-n4cncn4)cc3)nc2c1,EC50,Enterovirus A71 [1],> 20 µM
c1ccc2sc(SCc3ccc(-n4cncn4)cc3)nc2c1,EC50,Enterovirus A71 [1],> 20 µM
Cc1cccc2c1[nH]c1nc(SCc3ccc(-n4cncn4)cc3)nnc12,EC50,Enterovirus A71 [2],4.65 µM
same,CC50,[3],8.89 µM
same,EC50,Enterovirus A71 [1],26.5 µM
same,CC50,[4],15.6 µM
OCc1ccc(-c2ccc(SCc3ccc(-c4ccc(O)cc4)cc3)nc2)cc1,EC50,Enterovirus A71 [1],> 20 µM
CCOc1ccc(-c2ccc(CSc3ccc(-c4ccc(CO)cc4)cn3)cc2)cc1,EC50,Enterovirus A71 [1],> 20 µM

# Source: ChEMBL document CHEMBL5608217, “New potent EV-A71 antivirals targeting capsid” (Eur J Med Chem, 2024)
